According to a compilation of properties of binary mixtures (doi:10.1016/j.fluid.2015.05.023):

Assay: xn = mol fraction of the nth substance listed
Details: 100 kPa

CCCn1cc[n+](C)c1.O=S(=O)([N-]S(=O)(=O)C(F)(F)F)C(F)(F)F + O
x2 = 0.272
Details | viscosity [mPa·s]
298.15 K | 26.63
303.15 K | 22.24
313.15 K | 16.12
328.15 K | 10.73
333.15 K | 9.52
338.15 K | 8.5
348.15 K | 6.9
358.15 K | 5.69
363.15 K | 5.22

CCCC[n+]1ccn(C)c1.O=S(=O)([N-]S(=O)(=O)C(F)(F)F)C(F)(F)F + O
x2 = 0.257
Details | viscosity [mPa·s]
298.15 K | 31.31
303.15 K | 25.93
308.15 K | 21.78
313.15 K | 18.52
318.15 K | 15.92
323.15 K | 13.82
328.15 K | 12.1
338.15 K | 9.475
348.15 K | 7.629
358.15 K | 6.275
363.15 K | 5.73

CCCCCn1cc[n+](C)c1.O=S(=O)([N-]S(=O)(=O)C(F)(F)F)C(F)(F)F + O
x2 = 0.2211
Details | viscosity [mPa·s]
298.15 K | 38.65
303.15 K | 31.67
308.15 K | 26.32
323.15 K | 16.22
328.15 K | 14.08
333.15 K | 12.32
338.15 K | 10.87
343.15 K | 9.65
348.15 K | 8.63
353.15 K | 7.75
358.15 K | 7
363.15 K | 6.36

CCCCn1cc[n+](CCCC)c1.O=S(=O)([N-]S(=O)(=O)C(F)(F)F)C(F)(F)F + O
x2 = 0.1843
Details | viscosity [mPa·s]
298.15 K | 48.47
303.15 K | 39.12
313.15 K | 26.74
318.15 K | 22.52
323.15 K | 19.19
328.15 K | 16.51
333.15 K | 14.32
338.15 K | 12.53
343.15 K | 11.04
348.15 K | 9.78
353.15 K | 8.73

Cn1cc[n+](C)c1.O=S(=O)([N-]S(=O)(=O)C(F)(F)F)C(F)(F)F + O
x2 = 0.3548
Details | viscosity [mPa·s]
298.15 K | 18.59
303.15 K | 15.87
308.15 K | 13.73
313.15 K | 11.99
318.15 K | 10.57
323.15 K | 9.39
328.15 K | 8.39
333.15 K | 7.55
338.15 K | 6.84
343.15 K | 6.22
348.15 K | 5.69
353.15 K | 5.23
358.15 K | 4.82
363.15 K | 4.46

CCCCCCCCCCCn1cc[n+](C)c1.O=S(=O)([N-]S(=O)(=O)C(F)(F)F)C(F)(F)F + O
x2 = 0.1567
Details | viscosity [mPa·s]
298.15 K | 96.4
303.15 K | 75.7
308.15 K | 60.46
313.15 K | 49.36
318.15 K | 40.26
323.15 K | 33.49
328.15 K | 28.17
333.15 K | 24.19
343.15 K | 17.77
348.15 K | 15.5
353.15 K | 13.94
358.15 K | 12.05
363.15 K | 10.72

CC[n+]1ccn(C)c1.O=S(=O)([N-]S(=O)(=O)C(F)(F)F)C(F)(F)F + O
x2 = 0.298
Details | viscosity [mPa·s]
298.15 K | 18.97
308.15 K | 14.06
318.15 K | 10.83
323.15 K | 9.63
328.15 K | 8.615
338.15 K | 7.02
343.15 K | 6.382
348.15 K | 5.832
353.15 K | 5.35
358.15 K | 4.926
363.15 K | 4.549
